This note sets out measurements from ChEMBL document CHEMBL1132082, “Nonsteroidal androgen receptor agonists based on 4-(trifluoromethyl)-2H-pyrano[3,2-g]quinolin-2-one” (Bioorg Med Chem Lett, 1999).

The target in experiment [1] is Estrogen receptor (Homo sapiens, UniProt Q92731+P03372). The experiment is described as follows: In vitro antagonistic activity against human estrogen receptor (hER); not active. It counts as functional.
In experiment [2] the target is T1, Mineralocorticoid receptor (Homo sapiens) (UniProt P08235).
T1 sequence (whole entry): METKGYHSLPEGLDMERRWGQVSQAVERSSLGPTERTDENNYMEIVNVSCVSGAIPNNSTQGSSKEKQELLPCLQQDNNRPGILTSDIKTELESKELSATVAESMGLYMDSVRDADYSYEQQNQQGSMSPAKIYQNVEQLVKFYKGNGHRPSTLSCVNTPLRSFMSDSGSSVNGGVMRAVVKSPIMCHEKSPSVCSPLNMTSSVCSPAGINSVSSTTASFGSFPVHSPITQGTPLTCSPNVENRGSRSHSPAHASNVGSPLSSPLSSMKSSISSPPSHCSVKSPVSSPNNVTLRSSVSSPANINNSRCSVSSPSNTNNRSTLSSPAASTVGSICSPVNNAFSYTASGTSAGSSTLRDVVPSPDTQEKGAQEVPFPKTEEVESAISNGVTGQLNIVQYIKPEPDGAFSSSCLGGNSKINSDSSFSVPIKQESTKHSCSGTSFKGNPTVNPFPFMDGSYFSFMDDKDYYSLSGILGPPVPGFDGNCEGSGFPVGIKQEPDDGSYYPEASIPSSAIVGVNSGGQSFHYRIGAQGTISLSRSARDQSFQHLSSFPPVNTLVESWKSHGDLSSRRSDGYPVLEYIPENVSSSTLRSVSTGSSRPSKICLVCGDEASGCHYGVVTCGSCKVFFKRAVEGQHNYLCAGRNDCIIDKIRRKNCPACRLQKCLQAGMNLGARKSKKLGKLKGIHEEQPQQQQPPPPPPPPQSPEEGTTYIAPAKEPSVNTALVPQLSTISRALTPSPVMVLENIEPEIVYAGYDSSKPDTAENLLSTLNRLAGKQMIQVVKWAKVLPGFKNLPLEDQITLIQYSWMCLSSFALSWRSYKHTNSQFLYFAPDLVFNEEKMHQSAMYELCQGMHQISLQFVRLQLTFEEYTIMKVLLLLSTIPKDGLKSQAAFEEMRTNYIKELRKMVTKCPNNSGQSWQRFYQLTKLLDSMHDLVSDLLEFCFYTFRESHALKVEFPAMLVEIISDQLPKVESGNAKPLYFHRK
The experiment is described as follows: In vitro antagonistic activity against human mineralocorticoid receptor (hMR). The format is functional.

Experiment [3] concerns the target T2, Progesterone receptor (Homo sapiens, UniProt P06401).
T2 sequence (P06401 whole entry): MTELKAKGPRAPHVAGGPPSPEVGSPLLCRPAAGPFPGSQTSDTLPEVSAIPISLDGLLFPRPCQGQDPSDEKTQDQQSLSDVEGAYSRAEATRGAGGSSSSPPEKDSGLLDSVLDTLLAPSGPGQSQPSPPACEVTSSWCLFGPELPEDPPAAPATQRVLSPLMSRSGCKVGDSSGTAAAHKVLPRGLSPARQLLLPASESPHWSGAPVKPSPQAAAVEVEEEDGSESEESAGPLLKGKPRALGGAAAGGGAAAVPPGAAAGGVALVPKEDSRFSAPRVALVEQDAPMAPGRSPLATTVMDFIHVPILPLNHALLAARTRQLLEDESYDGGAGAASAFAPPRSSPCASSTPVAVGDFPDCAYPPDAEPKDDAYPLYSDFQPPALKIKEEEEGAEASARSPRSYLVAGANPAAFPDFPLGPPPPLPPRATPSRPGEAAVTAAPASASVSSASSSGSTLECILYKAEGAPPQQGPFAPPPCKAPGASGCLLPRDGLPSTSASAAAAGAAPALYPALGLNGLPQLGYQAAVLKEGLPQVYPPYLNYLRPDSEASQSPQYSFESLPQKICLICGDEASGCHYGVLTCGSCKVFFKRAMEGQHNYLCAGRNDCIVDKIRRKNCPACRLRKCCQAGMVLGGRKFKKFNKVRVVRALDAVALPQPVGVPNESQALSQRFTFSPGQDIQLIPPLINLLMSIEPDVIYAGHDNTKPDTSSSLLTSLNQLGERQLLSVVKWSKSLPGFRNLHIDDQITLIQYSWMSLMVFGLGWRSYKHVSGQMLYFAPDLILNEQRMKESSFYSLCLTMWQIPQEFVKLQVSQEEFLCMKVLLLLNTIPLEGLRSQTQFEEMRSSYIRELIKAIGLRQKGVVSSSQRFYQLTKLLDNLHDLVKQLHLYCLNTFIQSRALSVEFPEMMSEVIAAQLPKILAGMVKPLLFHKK
The experiment is described as follows: In vitro antagonistic activity against human progesterone receptor (hPR). The format is functional.

The target of experiment [4] is T3, Androgen receptor (Homo sapiens, UniProt P10275).
T3 sequence (P10275 whole entry): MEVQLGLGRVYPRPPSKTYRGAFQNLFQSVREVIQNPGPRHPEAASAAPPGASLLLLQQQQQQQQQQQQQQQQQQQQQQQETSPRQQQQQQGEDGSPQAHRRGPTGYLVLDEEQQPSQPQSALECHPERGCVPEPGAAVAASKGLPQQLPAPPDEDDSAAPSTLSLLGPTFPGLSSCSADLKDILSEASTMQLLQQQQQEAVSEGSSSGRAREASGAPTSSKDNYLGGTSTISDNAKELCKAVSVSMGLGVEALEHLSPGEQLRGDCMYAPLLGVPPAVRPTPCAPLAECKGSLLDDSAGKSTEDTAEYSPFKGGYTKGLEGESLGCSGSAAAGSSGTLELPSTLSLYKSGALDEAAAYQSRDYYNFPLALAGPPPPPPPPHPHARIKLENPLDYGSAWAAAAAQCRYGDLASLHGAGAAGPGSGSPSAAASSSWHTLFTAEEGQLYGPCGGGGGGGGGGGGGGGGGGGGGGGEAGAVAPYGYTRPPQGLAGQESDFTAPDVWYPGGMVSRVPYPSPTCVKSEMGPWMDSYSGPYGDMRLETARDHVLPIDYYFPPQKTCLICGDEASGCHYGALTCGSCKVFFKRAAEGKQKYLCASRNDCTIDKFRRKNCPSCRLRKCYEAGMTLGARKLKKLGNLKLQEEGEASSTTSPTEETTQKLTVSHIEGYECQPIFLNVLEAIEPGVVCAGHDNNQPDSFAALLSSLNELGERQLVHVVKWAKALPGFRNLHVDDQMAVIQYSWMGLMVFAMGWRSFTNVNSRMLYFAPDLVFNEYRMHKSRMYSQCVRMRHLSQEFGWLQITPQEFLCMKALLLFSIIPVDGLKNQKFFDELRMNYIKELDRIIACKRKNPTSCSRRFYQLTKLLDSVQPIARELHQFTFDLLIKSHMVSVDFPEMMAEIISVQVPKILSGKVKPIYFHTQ
Description: In vitro agonistic activity against human androgen receptor using cotransfection assay in CV-1 cells.

The target of experiment [5] is T3, Androgen receptor. This is another data set of the same source.
Experiment [6] addresses T3, Androgen receptor. The experiment is described as follows: biochemical.
Description: In vitro binding affinity at human androgen receptor transfected into COS cells.

SMILES strings stand for the structures.

As for `O=c1cc(C(F)(F)F)c2cc3c(cc2o1)NCCC3C(F)(F)F` (stereo not given), the IC50 in experiment [1] is > 10000 nM; in experiment [3] it was 270 nM; in experiment [5], > 10 nM; in experiment [6] it was 2 nM. For the same compound, the Efficacy in experiment [2] was < 20%. Also, a half-maximal effect in experiment [4] (EC50) was put at 2 nM.

As to `CCC1CCNc2cc3oc(=O)cc(C(F)(F)F)c3cc21` (stereo not given), the IC50 in experiment [1] was > 10000 nM; in experiment [3] it was 200 nM; in experiment [5] it was > 10 nM; in experiment [6], 1 nM. The Efficacy in experiment [2] is < 20%. Also, in experiment [4], a half-maximal response (EC50) required 2 nM.

For `CCC1Nc2cc3oc(=O)cc(C(F)(F)F)c3cc2CC1C` (stereo not given), the IC50 in experiment [1] is > 10000 nM; in experiment [3], 440 nM; in experiment [5] it was > 10 nM; in experiment [6], 7 nM. Moreover, in experiment [2], the Efficacy was < 20%. In experiment [4], this compound came in with an EC50 of 1 nM.

As to `CC1CCNc2cc3oc(=O)cc(C(F)(F)F)c3cc21` (stereo not given), the concentration for half-maximal inhibition (IC50) in experiment [1] is > 10000 nM; in experiment [3] it was 280 nM; in experiment [5], > 10 nM; in experiment [6] it was 1 nM. In addition, in experiment [2], the Efficacy is < 20%. In addition, the EC50 in experiment [4] is 2 nM.

As to `CCCC1CCNc2cc3oc(=O)cc(C(F)(F)F)c3cc21` (stereo not given), the IC50 in experiment [1] is > 10000 nM; in experiment [3] it was 106 nM; in experiment [5] it was > 10 nM; in experiment [6], 5 nM. In experiment [2], the Efficacy was < 20%. In experiment [4], this compound returned an EC50 of 5 nM.
